Values after ≈ are worked out from the molar mass of the structure shown.
What was measured:
[1] = tested on: Staphylococcus epidermidis; assay: Minimum inhibitory concentration against 533 Staphylococcus epidermidis; format: functional
[2] = tested on: C3H/3T3; assay: Minimal cytotoxic concentration to cause an alteration in C3H/3T3 cell line morphology; format: functional; conditions: Mus musculus
[3] = tested on: Enterococcus faecalis; assay: Minimum inhibitory concentration against 559 glycopeptide susceptible enterococci Enterococcus faecalis; format: functional
[4] = tested on: Enterococcus faecium; assay: Minimum inhibitory concentration against glycopeptide resistant enterococci 569 Enterococcus faecium; format: functional
[5] = tested on: Enterococcus faecalis; assay: Minimum inhibitory concentration against glycopeptide resistant enterococci 560 Enterococcus faecalis; format: functional
[6] = tested on: Enterococcus faecium; assay: Minimum inhibitory concentration against glycopeptide susceptible enterococci 568 Enterococcus faecium; format: functional
[7] = tested on: Staphylococcus haemolyticus; assay: Minimum inhibitory concentration against 602 Staphylococcus haemolyticus; format: functional
[8] = tested on: Staphylococcus aureus; assay: Minimum inhibitory concentration against glycopeptide intermediate-resistant 3797 Staphylococcus aureus; format: functional
[9] = tested on: Staphylococcus aureus; assay: Minimum inhibitory concentration against glycopeptide intermediate-resistant 3798 Staphylococcus aureus; format: functional
[10] = tested on: MOLT-4; assay: Cytostatic activity to the compound against Molt4/C8 cell line; format: functional, cell-based; conditions: Homo sapiens
[11] = tested on: Human immunodeficiency virus 2; assay: Effective concentration against human immunodeficiency virus type 2; format: functional, organism-based
[12] = tested on: Human immunodeficiency virus 1; assay: Effective concentration against human immunodeficiency virus type 1; format: functional, organism-based
[13] = tested on: CCRF-CEM; assay: Cytostatic activity to the compound against CEM cell line; format: functional, cell-based; conditions: Homo sapiens
[14] = tested on: L1210; assay: Cytostatic activity against L1210 cell line; format: functional, cell-based; conditions: Mus musculus
[15] = tested on: Moloney murine sarcoma virus; assay: Effective concentration against Moloney sarcoma virus; format: functional, organism-based, Viruses

NC(=O)C[C@@H]1NC(=O)[C@H](N)[C@H](O)c2ccc(c(Cl)c2)Oc2cc3cc(c2O)Oc2ccc(cc2)[C@@H](O)[C@@H]2NC(=O)[C@H](NC(=O)[C@@H]3NC1=O)c1ccc(O)c(c1)-c1c(O)cc(O)cc1[C@@H](C(=O)O)NC2=O
MIC [1]: > 128 µg/mL | MCC [2]: ≥ 100 µg/mL | MIC [3]: > 128 µg/mL | MIC [4]: > 128 µg/mL | MIC [5]: > 128 µg/mL | MIC [6]: > 128 µg/mL | MIC [7]: > 128 µg/mL | MIC [8]: > 128 µg/mL | MIC [9]: > 128 µg/mL | IC50 [10]: > 250 µM | EC50 [11]: > 250 µM | EC50 [12]: 115 µM | IC50 [13]: > 250 µM | IC50 [14]: > 250 µM | EC50 [15]: > 100 µM

NCCCCCCCCCCNC(=O)[C@H]1NC(=O)[C@H]2NC(=O)[C@H](NC(=O)[C@@H]3NC(=O)[C@H](CC(N)=O)NC(=O)[C@H](N)[C@H](O)c4ccc(c(Cl)c4)Oc4cc3cc(c4O)Oc3ccc(cc3Cl)[C@H]2O)c2ccc(O)c(c2)-c2c(O)cc(O)cc21
MIC [1]: > 32 µg/mL | MCC [2]: 100 µg/mL | MIC [3]: > 64 µg/mL | MIC [4]: > 64 µg/mL | MIC [5]: > 64 µg/mL | MIC [6]: > 64 µg/mL | MIC [7]: > 32 µg/mL | MIC [8]: > 32 µg/mL | MIC [9]: > 32 µg/mL | IC50 [10]: ≥ 250 µM | EC50 [11]: ≥ 25 µM | EC50 [12]: ≥ 25 µM | IC50 [13]: 139 µM | IC50 [14]: > 250 µM | EC50 [15]: 9.3 µM

CN[C@H](CC(C)C)C(=O)N[C@H]1C(=O)N[C@@H](CC(N)=O)C(=O)N[C@H]2C(=O)N[C@H]3C(=O)N[C@H](C(=O)N[C@H](C(=O)O)c4cc(O)cc(O)c4-c4cc3ccc4O)[C@H](O)c3ccc(cc3)Oc3cc2cc(c3O)Oc2ccc(cc2)[C@H]1O
MIC [1]: 32 µg/mL (≈ 29.8 µM) | MCC [2]: ≥ 100 µg/mL | MIC [3]: 32 µg/mL (≈ 29.8 µM) | MIC [4]: > 64 µg/mL | MIC [5]: > 64 µg/mL | MIC [6]: 32 µg/mL (≈ 29.8 µM) | MIC [7]: > 32 µg/mL | MIC [8]: > 32 µg/mL | MIC [9]: > 32 µg/mL | IC50 [10]: > 250 µM | EC50 [11]: > 125 µM | EC50 [12]: > 125 µM | IC50 [13]: > 250 µM | IC50 [14]: > 250 µM | EC50 [15]: ≥ 100 µM

NC(=O)C[C@@H]1NC(=O)[C@H](N)[C@H](O)c2ccc(c(Cl)c2)Oc2cc3cc(c2O)Oc2ccc(cc2Cl)[C@@H](O)[C@@H]2NC(=O)[C@H](NC(=O)[C@@H]3NC1=O)c1ccc(O)c(c1)-c1c(O)cc(O)cc1[C@@H](C(=O)O)NC2=O
MIC [1]: > 128 µg/mL | MCC [2]: > 100 µg/mL | MIC [3]: > 128 µg/mL | MIC [4]: > 128 µg/mL | MIC [5]: > 128 µg/mL | MIC [6]: > 128 µg/mL | MIC [7]: > 128 µg/mL | MIC [8]: > 128 µg/mL | MIC [9]: > 128 µg/mL | IC50 [10]: > 250 µM | EC50 [11]: ≥ 125 µM | EC50 [12]: ≥ 125 µM | IC50 [13]: ≥ 250 µM | IC50 [14]: > 250 µM | EC50 [15]: 88 µM

CN[C@H](CC(C)C)C(=O)N[C@H]1C(=O)N[C@@H](CC(N)=O)C(=O)N[C@H]2C(=O)N[C@H]3C(=O)N[C@H](C(=O)N[C@H](C(=O)NCC45CC6CC(CC(C6)C4)C5)c4cc(O)cc(O)c4-c4cc3ccc4O)[C@H](O)c3ccc(cc3)Oc3cc2cc(c3O)Oc2ccc(cc2Cl)[C@H]1O
MIC [1]: 8 µg/mL (≈ 6.37 µM) | MCC [2]: 100 µg/mL | MIC [3]: 4 µg/mL (≈ 3.18 µM) | MIC [4]: 8 µg/mL (≈ 6.37 µM) | MIC [5]: 8 µg/mL (≈ 6.37 µM) | MIC [6]: 8 µg/mL (≈ 6.37 µM) | MIC [7]: 8 µg/mL (≈ 6.37 µM) | MIC [8]: 8 µg/mL (≈ 6.37 µM) | MIC [9]: 8 µg/mL (≈ 6.37 µM) | IC50 [10]: 126 µM | EC50 [11]: 7 µM | EC50 [12]: 1.6 µM | IC50 [13]: 148 µM | IC50 [14]: 94 µM | EC50 [15]: 12 µM

NC(=O)C[C@@H]1NC(=O)[C@H](N)[C@H](O)c2ccc(c(Cl)c2)Oc2cc3cc(c2O)Oc2ccc(cc2Cl)[C@@H](O)[C@@H]2NC(=O)[C@H](NC(=O)[C@@H]3NC1=O)c1ccc(O)c(c1)-c1c(O)cc(O)cc1[C@@H](C(=O)NCC13CC4CC(CC(C4)C1)C3)NC2=O
MIC [1]: > 32 µg/mL | MCC [2]: ≥ 100 µg/mL | MIC [3]: > 64 µg/mL | MIC [4]: > 64 µg/mL | MIC [5]: > 64 µg/mL | MIC [6]: > 64 µg/mL | MIC [7]: > 32 µg/mL | MIC [8]: > 32 µg/mL | MIC [9]: > 32 µg/mL | IC50 [10]: 178 µM | EC50 [11]: 30 µM | EC50 [12]: 20 µM | IC50 [13]: ≥ 250 µM | IC50 [14]: ≥ 250 µM | EC50 [15]: 27 µM

CN[C@H](CC(C)C)C(=O)N[C@H]1C(=O)N[C@@H](CC(N)=O)C(=O)N[C@H]2C(=O)N[C@H]3C(=O)N[C@H](C(=O)N[C@H](C(=O)NCC45CC6CC(CC(C6)C4)C5)c4cc(O)cc(O)c4-c4cc3ccc4O)[C@H](O)c3ccc(cc3)Oc3cc2cc(c3O)Oc2ccc(cc2)[C@H]1O
MIC [1]: 8 µg/mL (≈ 6.54 µM) | MCC [2]: 100 µg/mL | MIC [3]: 8 µg/mL (≈ 6.54 µM) | MIC [4]: 16 µg/mL (≈ 13.1 µM) | MIC [5]: 16 µg/mL (≈ 13.1 µM) | MIC [6]: 4 µg/mL (≈ 3.27 µM) | MIC [7]: 16 µg/mL (≈ 13.1 µM) | MIC [8]: 8 µg/mL (≈ 6.54 µM) | MIC [9]: 16 µg/mL (≈ 13.1 µM) | IC50 [10]: 44 µM | EC50 [11]: 12 µM | EC50 [12]: 8.5 µM | IC50 [13]: 165 µM | IC50 [14]: 58 µM | EC50 [15]: 11 µM

CN[C@H](CC(C)C)C(=O)N[C@H]1C(=O)N[C@@H](CC(N)=O)C(=O)N[C@H]2C(=O)N[C@H]3C(=O)N[C@H](C(=O)N[C@H](C(=O)NC4C5CC6CC(C5)CC4C6)c4cc(O)cc(O)c4-c4cc3ccc4O)[C@H](O)c3ccc(cc3)Oc3cc2cc(c3O)Oc2ccc(cc2Cl)[C@H]1O (stereo not given in full)
MIC [1]: 16 µg/mL (≈ 12.9 µM) | MCC [2]: 20 µg/mL | MIC [3]: 8 µg/mL (≈ 6.44 µM) | MIC [4]: 32 µg/mL (≈ 25.7 µM) | MIC [5]: 32 µg/mL (≈ 25.7 µM) | MIC [6]: 16 µg/mL (≈ 12.9 µM) | MIC [7]: 16 µg/mL (≈ 12.9 µM) | MIC [8]: 16 µg/mL (≈ 12.9 µM) | MIC [9]: 16 µg/mL (≈ 12.9 µM) | IC50 [10]: > 250 µM | EC50 [11]: 20 µM | EC50 [12]: 8.5 µM | IC50 [13]: > 250 µM | IC50 [14]: > 250 µM | EC50 [15]: > 4 µM

CN[C@H](CC(C)C)C(=O)N[C@H]1C(=O)N[C@@H](CC(N)=O)C(=O)N[C@H]2C(=O)N[C@H]3C(=O)N[C@H](C(=O)N[C@H](C(=O)NC4C5CC6CC(C5)CC4C6)c4cc(O)cc(O)c4-c4cc3ccc4O)[C@H](O)c3ccc(cc3)Oc3cc2cc(c3O)Oc2ccc(cc2)[C@H]1O (stereo not given in full)
MIC [1]: 16 µg/mL (≈ 13.2 µM) | MCC [2]: 100 µg/mL | MIC [3]: 16 µg/mL (≈ 13.2 µM) | MIC [4]: 32 µg/mL (≈ 26.5 µM) | MIC [5]: 32 µg/mL (≈ 26.5 µM) | MIC [6]: 8 µg/mL (≈ 6.62 µM) | MIC [7]: 16 µg/mL (≈ 13.2 µM) | MIC [8]: 16 µg/mL (≈ 13.2 µM) | MIC [9]: 16 µg/mL (≈ 13.2 µM) | IC50 [10]: 185 µM | EC50 [11]: 21.7 µM | EC50 [12]: 8.5 µM | IC50 [13]: 185 µM | IC50 [14]: 129 µM | EC50 [15]: 14 µM

CN[C@H](CC(C)C)C(=O)N[C@H]1C(=O)N[C@@H](CC(N)=O)C(=O)N[C@H]2C(=O)N[C@H]3C(=O)N[C@H](C(=O)N[C@H](C(=O)NCCCCCCCCCCN)c4cc(O)cc(O)c4-c4cc3ccc4O)[C@H](O)c3ccc(cc3)Oc3cc2cc(c3O)Oc2ccc(cc2Cl)[C@H]1O
MIC [1]: 8 µg/mL (≈ 6.33 µM) | MCC [2]: 20 µg/mL | MIC [3]: 8 µg/mL (≈ 6.33 µM) | MIC [4]: 32 µg/mL (≈ 25.3 µM) | MIC [5]: 32 µg/mL (≈ 25.3 µM) | MIC [6]: 8 µg/mL (≈ 6.33 µM) | MIC [7]: 8 µg/mL (≈ 6.33 µM) | MIC [8]: 8 µg/mL (≈ 6.33 µM) | MIC [9]: 8 µg/mL (≈ 6.33 µM) | IC50 [10]: 196 µM | EC50 [11]: 25 µM | EC50 [12]: 8.5 µM | IC50 [13]: 202 µM | IC50 [14]: ≥ 250 µM | EC50 [15]: > 4 µM

CN[C@H](CC(C)C)C(=O)N[C@H]1C(=O)N[C@@H](CC(N)=O)C(=O)N[C@H]2C(=O)N[C@H]3C(=O)N[C@H](C(=O)N[C@H](C(=O)NCCCCCCCCCCN)c4cc(O)cc(O)c4-c4cc3ccc4O)[C@H](O)c3ccc(cc3)Oc3cc2cc(c3O)Oc2ccc(cc2)[C@H]1O
MIC [1]: 16 µg/mL (≈ 13 µM) | MCC [2]: 100 µg/mL | MIC [3]: 16 µg/mL (≈ 13 µM) | MIC [4]: 64 µg/mL (≈ 52.1 µM) | MIC [5]: 32 µg/mL (≈ 26 µM) | MIC [6]: 8 µg/mL (≈ 6.51 µM) | MIC [7]: 16 µg/mL (≈ 13 µM) | MIC [8]: 16 µg/mL (≈ 13 µM) | MIC [9]: 16 µg/mL (≈ 13 µM) | IC50 [10]: 106 µM | EC50 [11]: > 25 µM | EC50 [12]: 15 µM | IC50 [13]: 109 µM | IC50 [14]: 146 µM | EC50 [15]: 14 µM

— ChEMBL document CHEMBL1139533, “Structure-activity relationship studies of a series of antiviral and antibacterial aglycon derivatives of the glycopeptide antibiotics vancomycin, eremomycin, and dechloroeremomycin” (J Med Chem, 2005)
